Laboratory results published in patent publication US12697311B2, “Tetrahydrocurcumin compositions, methods of making, and methods of using the same” (Renibus Therapeutics, Inc., priority 2019, dated 2026).
Entries after “also recorded” stand apart in the source; their conditions may differ.

Experiment: Plasma pharmacokinetics after single oral dose in male rats
Assay type: in vivo
Details: single 100 mg oral dose; for AUC(0-t) / Cmax / Tmax: rat, plasma, N=3; for AUC(0-t) / Cmax: geometric mean; for Tmax: median
Experimental: The d6-THCu was formulated at a concentration of 10% w/w in the amounts and ratios provided below:
Compositions were prepared according to the following process. Set up the 5 L jacketed reaction vessel and Julabo circulation heater. Begin heating the Julabo to 90° C. Dispense Phosal 75 SA, Captex 300, and Labrasol ALF (Items 2, 3, and 4) into appropriately sized containers. Add sthe Phosal 75 SA, Captex 300, and Labrasol ALF to the 5 L reaction vessel. Mix contents until visually homogenous and product reaches a temperature of 85° C.±5° C. Add Tetrahydrocurcumin to vessel containing Phosal 75 SA, Captex 300, and Labrasol ALF while stirring. Mix until completely dissolved and visually homogenous. Reduce the Julabo temperature and allow the solution to cool to 30° C.±5° C. while continuing to stir. Package product by adding 50 mL to appropriate 60 mL bottles. Continue until product is exhausted.
The d6-THCu version of the compound provides a desirable release profile compared to non-deuterated THCu. Compositions were prepared using THCu as well as d6-THCu and their pk profiles were compared.
The plasma concentrations of THCu and THCu-d6 was compared by administering single doses of 100 mg to male rats. […] Individual animal pharmacokinetic parameters comparing THCu and d6-THCu is shown in FIG. 4, and statistics for the individual animal pharmacokinetic parameters is shown in FIG. 5.
Graphs of individual animal plasma concentrations versus time are shown in FIGS. 6-7 (linear axes) and FIGS. 8-9 (semi-logarithmic axes).

SMILES | AUC(0-t) [ng·h/mL] | Cmax [ng/mL] | Tmax [h] | plasma concentration versus time / release profile (compared with non-deuterated THCu)
COc1cc(CCC(=O)CC(=O)CCc2ccc(O)c(OC)c2)ccc1O [THCu, tetrahydrocurcumin] | 38300 | 4070 | 1 | 
[2H]C([2H])([2H])Oc1cc(CCC(=O)CC(=O)CCc2ccc(O)c(OC([2H])([2H])[2H])c2)ccc1O [THCu-d6, d6-Tetrahydrocurumin] | 43000 | 2820 | 24 | more stable release profile than the non-deuterated version; also recorded: no burst release of active agent after administration
